Series [1] has as its system K. aerogenes 1082 E. Nature of the series: In-vitro antibacterial activity, agar dilution technique. To be noted: Klebsiella aerogenes. Type of series: cell-based. From the text:
(§1) In-Vitro Antibacterial Activity (γ/ml)
(§2) Against Gram-positive And Gram-negative bacteria
(§3) As Determined By The Agar Dilution Technique

Series [2] relates to E. coli 026:B6 cef R (IV). The series is described as above. The note with it: Escherichia coli. Format: cell-based.
Excerpt: as §1, §2, §3

Series [3] has as its system S. pyogenes ATCC 12384. The description is as above. Type of series: cell-based. To be noted: Streptococcus pyogenes.
Excerpt: as §1, §2, §3

The test system of series [4] is Pseudomonas aeruginosa 2598. Described as above. Format: cell-based.
Excerpt: as §1, §2, §3

Series [5] deals with Klebsiella aerogenes 1522 E. Described as above. Format: cell-based.
Excerpt: as §1, §2, §3

Series [6] has as its system Streptococcus faecalis (4 Strains). Described as above. Format: cell-based. The note with it: Enterococcus faecalis.
Excerpt: as §1, §2, §3

Series [7] deals with Proteus morganii ATCC 25830. The description is as above. Format: cell-based. The note with it: Morganella morganii, ATCC25830.
Excerpt: as §1, §2, §3

Series [8] concerns P. rettgeri ATCC 9250. The description is as above. Format: cell-based. The note with it: Providencia rettgeri, ATCC9250.
Excerpt: as §1, §2, §3

The subject of series [9] is S. Aureus 209 P. Described as above. The note with it: Staphylococcus aureus. Format: cell-based.
Excerpt: as §1, §2, §3

Series [10] has as its system Staphylococcus aureus Smith. The series is described as above. Format: cell-based.
Excerpt: as §1, §2, §3

Series [11] has as its system Escherichia coli 026:B6. The series is described as above. Type of series: cell-based.
Excerpt: as §1, §2, §3

The test system of series [12] is S. Epidermidis. The description is as above. Type of series: cell-based. The note with it: Staphylococcus epidermidis.
Excerpt: as §1, §2, §3

Series [13] can be described thus: Plasma half-life after a single intravenous dose in the mouse. Format: in vivo. To be noted: 10 mg/kg, single intravenous dose 10 mg/kg, two compartments open model. How it is done:
| ^(1) Determined after a single intravenous dose (10 mg/kg) in the | mouse; the plasma concentration vs. time data were best described | according to a two compartments open model with the tabulated

In series [14] the test system is Citrobacter Freundii ATCC 8090. Kind of series: In-vitro antibacterial activity, agar dilution technique. Type of series: cell-based. To be noted: ATCC8090.
Excerpt: as §1, §2, §3

Series [15] deals with Serratia marcescens ATCC 2902. The description is as above. Type of series: cell-based.
Excerpt: as §1, §2, §3

Series [16] deals with Escherichia coli G. Nature of the series: Experimental infections in mice (intraperitoneal). Format: in vivo. To be noted: 6 h, E. coli G, intraperitoneal infection in mice, 3 × LD50 challenge, treatments at 30, 90, 360 minutes, read-out: ED50 (cumulative dose). The procedure:
(§4) ^(2) Intraperitoneal infection in mice with a 3 × LD50
(§5) challenge; treatments at 30 minutes after infection for S. aureus and 30,
(§6) 90, 360 minutes for E. coli and K. pneumoniae.

Series [17] concerns Klebsiella pneumoniae FI 5724. Kind of series: Experimental infections in mice (intraperitoneal). The note with it: FI5724, 6 h, K. pneumoniae FI 5724, intraperitoneal infection in mice, 3 × LD50 challenge, treatments at 30, 90, 360 minutes, read-out: ED50 (cumulative dose). Format: in vivo. The procedure:
as §4, §5, §6

For series [18], the system named is Staphylococcus aureus Smith. Nature of the series: Experimental infections in mice (intraperitoneal). To be noted: 0.5 h, S. aureus Smith, intraperitoneal infection in mice, 3 × LD50 challenge, treatment at 30 minutes after infection, read-out: ED50 (cumulative dose). Type of series: in vivo. The procedure:
as §4, §5, §6

[19] abbreviates: ATCC12384, S. pyogenes ATCC 12384, agar dilution technique, read-out: In-Vitro Antibacterial Activity.

≈ marks a conversion by molar mass, not a printed value. Where two headings read alike, the source gives them in different places.

In the case of `CO/N=C(\C(=O)N[C@@H]1C(=O)N2C(C(=O)O)=C(COC(C)=O)CS[C@H]12)c1csc(N)n1` [Cefotaxime], the MIC in series [1] was found to be 6.25 µg/mL (≈ 13.7 µM); in series [2], 1.25 µg/mL (≈ 2.74 µM); in series [3] (ATCC12384, read-out: In-Vitro Antibacterial Activity), 1.25 µg/mL (≈ 2.74 µM); in series [4], 25 µg/mL (≈ 54.9 µM); in series [5], 0.095 µg/mL (≈ 0.209 µM); in series [6] it was 10 µg/mL (≈ 22 µM). Also, the MIC was found to be 0.037 µg/mL (≈ 0.0812 µM) in series [7]; 0.018 µg/mL (≈ 0.0395 µM) in [8]; 1.56 µg/mL (≈ 3.43 µM) in series [9]; 0.77 µg/mL (≈ 1.69 µM) in [10]; 0.38 µg/mL (≈ 0.834 µM) in series [11]; 6.25 µg/mL (≈ 13.7 µM) in [12].

Take `C[C@@H](O)[C@H]1C(=O)N2C(C(=O)[O-])=C(c3ccc(C[n+]4ccccc4)cc3)S[C@H]12` [Compound 5, (5R,6S)-6-[(1R)-hydroxyethyl]-2-[4-(pyridiniomethyl)phenyl]penem-3-carboxylate]: the half-life is 5 min in series [13] (read-out: Plasma half-life t1/2 α) and 15 min in series [13] (read-out: Plasma half-life t1/2 β). For the same compound, the MIC in series [1] turned out to be 0.38 µg/mL (≈ 0.994 µM); in series [2], 0.38 µg/mL (≈ 0.994 µM); in series [3] (setting [19]), 0.011 µg/mL (≈ 0.0288 µM); in series [4], 25 µg/mL (≈ 65.4 µM); in series [5] it was 0.38 µg/mL (≈ 0.994 µM); in [6], 0.06 µg/mL (≈ 0.157 µM). For the same compound, the MIC in series [7] worked out at 0.38 µg/mL (≈ 0.994 µM); in [8], 0.38 µg/mL (≈ 0.994 µM); in series [9], 0.005 µg/mL (≈ 0.0131 µM); in series [10], 0.011 µg/mL (≈ 0.0288 µM); in series [11], 0.19 µg/mL (≈ 0.497 µM); in [14], 0.19 µg/mL (≈ 0.497 µM). Also, the MIC in [15] (ATCC2902, Serratia marcescens ATCC 2902, agar dilution technique, read-out: In-Vitro Antibacterial Activity) was determined as 0.76 µg/mL (≈ 1.99 µM); in series [12], 0.19 µg/mL (≈ 0.497 µM). The ED50 is 0.5 mg/kg in series [16], 0.8 mg/kg in [17] and 0.06 mg/kg in series [18].

As to `CC(=O)OCC1=C(C(=O)O)N2C(=O)C(C(C)O)C2S1` (stereo not drawn) [FCE 21420], the MIC came out at 0.76 µg/mL (≈ 2.65 µM) in series [1]; 3.12 µg/mL (≈ 10.9 µM) in [2]; 0.046 µg/mL (≈ 0.16 µM) in series [3] (setting [19]); 100 µg/mL (≈ 348 µM) in series [4]; 1.55 µg/mL (≈ 5.4 µM) in series [5]; 0.1 µg/mL (≈ 0.348 µM) in series [6]. The MIC in series [7] came out at 1.52 µg/mL (≈ 5.29 µM); in [8], 1.52 µg/mL (≈ 5.29 µM); in series [9], 0.046 µg/mL (≈ 0.16 µM); in series [10] it was 0.046 µg/mL (≈ 0.16 µM); in series [11], 0.76 µg/mL (≈ 2.65 µM); in series [14], 1.52 µg/mL (≈ 5.29 µM). Also, the MIC turned out to be 3.12 µg/mL (≈ 10.9 µM) in [15] (Serratia marcescens, ATCC2902, read-out: In-Vitro Antibacterial Activity) and 0.76 µg/mL (≈ 2.65 µM) in [12].
